Measured values reported in patent publication US8192962B2, “Processes for detecting toxic substances” (Daikin Industries, Ltd., priority 2001, dated 2012).

Tested on: Mitochondria-located protein genes
Experiment: DNA chip mRNA expression in yeast, mitochondria-located protein genes (Table 2)
Format: cell-based, Saccharomyces cerevisiae S288C
Conditions: cells incubated two hours with the chemical substance
Summary of the method: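 S. cerevisiae S288C grown at 25° C in YPD were exposed in log phase for two hours to one toxic chemical at a growth-inhibiting, non-lethal concentration; untreated cells served as control. Poly(A) mRNA was reverse-transcribed with Cy3/Cy5-dUTP and hybridized to a whole-genome yeast DNA chip at 65° C for over 12 hours; values are fluorescence ratios versus untreated.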

Measured: The level of expressed mRNA in the presence of chemical substance/The level of expressed mRNA in the absence of chemical substance

[Cl][Pb][Cl] [(4), PbCl2]
3.0: yeast gene YBR091C | yeast gene YGL018C
1.2: yeast gene YBR251W | yeast gene YLR348C | yeast gene YML129C | yeast gene YPL135W | yeast gene YPL262W
1.1: yeast gene YBR122C | yeast gene YDR079W | yeast gene YEL024W | yeast gene YMR083W
1.0: yeast gene YAL039C | yeast gene YER178W | yeast gene YGR082W | yeast gene YJR121W | yeast gene YLL041C | yeast gene YOR130C | yeast gene YOR142W | yeast gene YPR024W
0.6: yeast gene YNL256W
0.8: yeast gene YJL102W
1.8: yeast gene YBL038W | yeast gene YCR083W | yeast gene YDL181W | yeast gene YGL187C | yeast gene YGL191W | yeast gene YGR028W | yeast gene YHR008C | yeast gene YKL003C
1.9: yeast gene YBR003W | yeast gene YBR044C | yeast gene YKL170W | yeast gene YLR395C | yeast gene YML120C | yeast gene YMR023C | yeast gene YOR150W
2.1: yeast gene YLR038C
2.4: yeast gene YGR174C
2.2: yeast gene YDR178W
3.7: yeast gene YIL155C
2.0: yeast gene YBR185C | yeast gene YNL055C | yeast gene YOR187W
1.7: yeast gene YKL016C | yeast gene YKL141W | yeast gene YLR295C | yeast gene YMR035W | yeast gene YNL073W | yeast gene YOR020C | yeast gene YOR100C | yeast gene YPL040C | yeast gene YPR134W
3.5: yeast gene YDR347W
0.7: yeast gene YBL022C | yeast gene YKL148C | yeast gene YKR066C | yeast gene YLR304C
1.5: yeast gene YBR221C | yeast gene YDR231C | yeast gene YNL071W | yeast gene YOR316C | yeast gene YPL215W | yeast gene YPR047W
5.1: yeast gene YEL039C
3.2: yeast gene YDR529C | yeast gene YGR008C
1.4: yeast gene YBL099W | yeast gene YDL198C | yeast gene YDR258C | yeast gene YDR377W | yeast gene YGR062C | yeast gene YKL142W | yeast gene YMR203W | yeast gene YOR037W
2.3: yeast gene YBR282W | yeast gene YGR076C
1.3: yeast gene YDL067C | yeast gene YDR298C | yeast gene YJL096W | yeast gene YJL166W | yeast gene YJL180C | yeast gene YPR037C
3.4: yeast gene YML054C
1.6: yeast gene YCR046C | yeast gene YGR244C | yeast gene YJR077C | yeast gene YKL194C | yeast gene YLR259C | yeast gene YOL096C | yeast gene YPL134C
0.9: yeast gene YBL030C | yeast gene YFL016C | yeast gene YJL133W | yeast gene YMR089C | yeast gene YMR152W | yeast gene YMR267W | yeast gene YNL104C | yeast gene YOR176W | yeast gene YPR067W
0.5: yeast gene YCL057W
